Test results: patent publication US4678775A, “Method of controlling pests” (priority 1984, dated 1987)

Assays:
[1] = target: T1, Beta1 and Beta2-adrenergic-stimulated adenylate cyclase in rat liver (Rattus norvegicus, UniProt P10608); test: Adenylate cyclase stimulation in rat liver; format: biochemical
T1 construct: adenylate cyclase in rat heart and liver; from tissue; host or cells: rat liver

[2] = tested on: isolated tails of Photinus males; test: Stimulation of light production after injection into transected, isolated firefly tails; format: in vivo; conditions: for EC50 for stimulated light emission: injected into isolated tails
[3] = tested on: adenylate cyclase in nerve cord of tobacco hornworm; test: Adenylate cyclase activation in broken cell preparations of tobacco hornworm nerve cord; format: biochemical, tobacco hornworm (Manducca sexta)
Method: Otherwise, the procedure is identical to that described above.
The tissue is homogenized (usually 15 mg/ml) as above in 6 mM Tris maleate, pH 7.4. […] This is done to cancel out the effects of dopamine and serotonin receptors which are usually present in nerve cord.
As detailed previously, the adenylate cyclase assay, either in the firefly or in other insect pest, is also used to identify a direct stimulator of adenylate cyclase.

[4] = target: T2, dopamine-sensitive adenylate cyclase in rat caudate nucleus (Rattus norvegicus, UniProt P18901); test: Adenylate cyclase stimulation in rat caudate nucleus; format: biochemical
T2 construct: in the rat caudate nucleus; from tissue; host or cells: rat caudate nucleus

[5] = tested on: tobacco hornworms (Manducca sexta); test: In vivo leaf test (antifeeding) on tomato leaves with tobacco hornworm larvae; conditions: for effect of addition of IBMX on antifeeding / pesticidal activity: with PDE inhibitor IBMX
[6] = tested on: octopamine-sensitive adenylate cyclase; conditions: Nathanson et al. 1981; cited from earlier work
[7] = tested on: Beta1 and Beta2-adrenergic-stimulated adenylate cyclase in rat liver; test: Adenylate cyclase stimulation in rat liver; format: biochemical
[8] = tested on: octopamine-sensitive adenylate cyclase; test: Activation of octopamine-sensitive adenylate cyclase, firefly light organ broken cell preparation; format: biochemical, Photinus pyralis
[9] = target: T3, Beta1 and Beta2-adrenergic-stimulated adenylate cyclase in rat heart (Rattus norvegicus, UniProt P18090); test: Adenylate cyclase stimulation in rat heart; format: biochemical
T3 construct: adenylate cyclase in rat heart and liver; from tissue; host or cells: rat heart

[10] = tested on: Beta1 and Beta2-adrenergic-stimulated adenylate cyclase in rat heart; test: Adenylate cyclase stimulation in rat heart; format: biochemical
[11] = tested on: adenylate cyclase in the firefly lantern; test: Direct activation of adenylate cyclase in firefly lantern (forskolin); format: biochemical, Photinus pyralis; conditions: FIG. 2, firefly lantern
From the text: The second type of pest controlling compounds (2) useable in the present compositions are direct stimulators of the pest enzyme adenylate cyclase. These compounds bypass the receptor, and interact with one or another of the associated catalytic or regulatory subunits of adenylate cyclase, thereby stimulating the formation of cyclic AMP. Suitable compounds can be determined from assay of pest adenylate cyclase as described above.
Specimens of Photinus pyralis were collected in summer, frozen on dry ice, and stored at -90°. […] For each experiment, a number of insects were thawed and maintained at 4° C. […]
Adenylate cyclase activation by test compounds was measured in test tubes containing (in 0.3 ml) 80 mM Tris-maleate, pH 7.4; 10 mM theophylline; 8 mM MgCl2; 0.1 mM GTP; 0.5 mM ethylene glycol bis(beta-aminoethyl ether)-N,N,N',N'-tetraacetic acid; 2 mM ATP; 0.06 ml of P2 fractions; and the various compounds to be tested. Prior experiments had determined that, under these conditions, octopamine-sensitive adenylate cyclase activity is optimized. […] Cyclic AMP in the supernatant was measured by protein-binding assay, according to the method of Brown et al., Adv. […] Protein concentration was determined by the method of Lowry et al., Journal of Biological Chemistry 193: 265-275 (1951). […]

[12] = Cyclic AMP analogue remaining after incubation with nerve cord homogenate; format: in vitro ADME, tobacco hornworm; conditions: in vitro 4 hours; IBMX 0.1 mM; FIG. 7
Method: It has been previously shown, above, that PDE inhibition can increase the concentration of cyclic AMP in insect tissue. […] In order to do this, a fixed amount of butyl-benzylthio cyclic AMP was incubated in vitro for 4 hours in the presence of a tissue homogenated from tobacco hornworm nerve cord. In some tubes, IBMX (0.1 mM) was added to inhibit PDE. After the incubation, the amount of butyl-benzylthio cyclic AMP remaining was measured by protein binding assay (Brown et al., supra), using a standard curve based upon butyl-benzylthio cyclic AMP.

[13] = FIG. 3, hornworm larvae nerve cord

T2 sequence (P18901 whole entry): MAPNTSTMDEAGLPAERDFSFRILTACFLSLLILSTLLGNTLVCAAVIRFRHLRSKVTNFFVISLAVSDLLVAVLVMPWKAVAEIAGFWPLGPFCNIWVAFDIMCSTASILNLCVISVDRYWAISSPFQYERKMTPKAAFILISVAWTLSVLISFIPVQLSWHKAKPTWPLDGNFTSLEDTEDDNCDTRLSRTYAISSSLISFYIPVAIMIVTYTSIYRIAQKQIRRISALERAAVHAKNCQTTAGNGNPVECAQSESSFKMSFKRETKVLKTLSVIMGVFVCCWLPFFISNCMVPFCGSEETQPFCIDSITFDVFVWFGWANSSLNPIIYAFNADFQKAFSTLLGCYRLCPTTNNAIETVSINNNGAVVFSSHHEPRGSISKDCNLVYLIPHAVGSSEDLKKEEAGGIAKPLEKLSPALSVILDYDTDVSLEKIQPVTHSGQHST
T1 sequence (P10608 whole entry): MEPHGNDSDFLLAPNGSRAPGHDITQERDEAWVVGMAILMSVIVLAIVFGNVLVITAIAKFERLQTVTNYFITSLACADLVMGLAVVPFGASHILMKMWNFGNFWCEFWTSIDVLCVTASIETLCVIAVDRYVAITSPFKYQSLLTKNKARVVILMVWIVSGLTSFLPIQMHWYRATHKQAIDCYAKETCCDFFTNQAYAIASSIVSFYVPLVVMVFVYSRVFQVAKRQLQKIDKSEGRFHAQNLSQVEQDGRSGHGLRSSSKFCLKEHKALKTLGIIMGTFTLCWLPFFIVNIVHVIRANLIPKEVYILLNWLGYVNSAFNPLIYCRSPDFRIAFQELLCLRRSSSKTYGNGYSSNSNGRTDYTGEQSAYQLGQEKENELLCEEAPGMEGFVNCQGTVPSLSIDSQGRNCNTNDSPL
T3 sequence (P18090 whole entry): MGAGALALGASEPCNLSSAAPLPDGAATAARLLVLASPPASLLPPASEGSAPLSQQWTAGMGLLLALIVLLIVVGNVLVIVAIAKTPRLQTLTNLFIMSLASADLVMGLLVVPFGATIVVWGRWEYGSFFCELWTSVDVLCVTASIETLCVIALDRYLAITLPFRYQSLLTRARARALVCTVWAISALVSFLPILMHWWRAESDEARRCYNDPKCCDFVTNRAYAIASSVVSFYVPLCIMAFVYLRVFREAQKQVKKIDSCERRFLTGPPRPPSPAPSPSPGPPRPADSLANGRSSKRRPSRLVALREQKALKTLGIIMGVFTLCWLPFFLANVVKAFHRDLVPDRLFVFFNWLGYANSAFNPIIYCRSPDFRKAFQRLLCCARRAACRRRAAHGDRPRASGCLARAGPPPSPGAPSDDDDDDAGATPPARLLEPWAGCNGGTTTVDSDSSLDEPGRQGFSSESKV

Structure (SMILES): NCC(O)c1ccc(O)cc1 (racemic) [octopamine, reference compound]
- stimulation of adenylate cyclase [1]: neither octopamine nor NC5 were active
- EC50 for stimulated light emission [2]: about 5 nmoles/tail
- activation of adenylate cyclase in nerve cord ([3]; FIG. 1): potent activators
- stimulation of adenylate cyclase [4]: neither octopamine nor NC5 caused any significant enzyme stimulation
- Ki for inhibition of feeding by the larvae ([5]; applied to leaves): 0.5 mg/leaf
- rank order antifeeding effectiveness ([5]; based on the EC50 of the octopamine agonist, alone or +IBMX): DDCDM+IBMX=NC7+IBMX>Octopamine+IBMX=DDCDM alone>NC7 alone>octopamine alone
- behaviour of larvae feeding on treated leaves ([5]; in vivo): tremors, hyperactivity, and leaf walk-off behavior
- pesticidal activity ([5]; no IBMX): little pesticidal activity
- effect of addition of IBMX on antifeeding / pesticidal activity [5]: considerably elevated both cyclic AMP content and pesticidal activity

Structure (SMILES): CC(C)NC[C@H](O)c1ccc(O)c(O)c1 [(-)-isoproterenol, reference compound]
- stimulation of adenylate cyclase [1]: potently stimulates

Structure (SMILES): CNC=Nc1ccc(Cl)cc1C [DCDM, N-demethylchlordimeform]
- potency relative to octopamine as partial agonist of light organ octopamine-stimulated adenylate cyclase [6]: about six-fold more potent than octopamine

Structure (SMILES): CCc1cccc(CC)c1N=C1NCCN1 [NC 5, 2-(2,6-diethylphenylimino)imidazolidine]
- stimulation of adenylate cyclase [1]: neither octopamine nor NC5 were active
- inhibition of basal adenylate cyclase activity [7]: In none of the three mammalian tissues did NC5 cause any inhibition
- Ka (half-maximal activation) [8]: about 1 μM
- Ka fold lower than that due to octopamine [8]: 20 fold
- maximal stimulation relative to octopamine [8]: equal to that caused by octopamine
- Ka ratio to octopamine ([8]; Table 2, clonidines): 19.0
- Vmax (% OCT) ([8]; Table 2, clonidines, N.A. = no activity): 97 % OCT
- activity as an octopamine antagonist ([8]; combinations of octopamine and NC5): no activity as an octopamine antagonist
- lowest concentration with significant stimulation ([8]; unit not given): 3×10^-8
- EC50 for stimulated light emission [2]: about 0.3 nmoles
- times as potent as octopamine ([2]; light emission EC50): more than 16 times
- stimulation of adenylate cyclase [9]: almost completely inactive
- inhibition of basal adenylate cyclase activity [10]: In none of the three mammalian tissues did NC5 cause any inhibition
- inhibition of basal adenylate cyclase activity [4]: In none of the three mammalian tissues did NC5 cause any inhibition
- stimulation of adenylate cyclase [4]: neither octopamine nor NC5 caused any significant enzyme stimulation
- % Leaf Remaining ([5]; Table 5, agonist 3 × 10^-1 gm/100 ml, IBMX 0.1 g/100 ml): 70%
- effect of addition of IBMX on antifeeding / pesticidal activity [5]: substantial increases in the potency

Structure (SMILES): C=C[C@@]1(C)CC(=O)[C@]2(O)[C@@]3(C)[C@@H](O)CCC(C)(C)[C@@H]3[C@H](O)[C@H](OC(C)=O)[C@@]2(C)O1 [forskolin]
- Ka ratio [3, 13]: 0.20
- Vmax [3, 13]: about 100%
- antifeeding activity ([5]; compound itself, in words): has antifeeding activity
- effect of addition of IBMX on antifeeding / pesticidal activity [5]: enhanced
- Ka ratio [11]: 0.22
- Vmax [11]: 100%

Structure (SMILES): CCCCNc1ncnc2c1nc(SCc1ccccc1)n2[C@@H]1O[C@@H]2COP(=O)(O)O[C@H]2[C@H]1O [n-butylaminobenzylthio cyclic AMP, 6-n-butylamino-8-benzylthio-cyclic AMP, reference compound]
- amount of cyclic AMP analogue present after 4 hours, with IBMX versus without [12]: more than doubled
- antifeeding activity ([5]; concentration of 1%, absence of IBMX): showed antifeeding activity
- effect of addition of IBMX on antifeeding / pesticidal activity [5]: increased by addition of IBMX
